From patent publication US20240269278A1, “ANTI-CD47 ANTIBODY FOR COMBINED TREATMENT OF BLOOD TUMOR” (Nanjing Shunxin Pharmaceuticals Co., Ltd. of Chiatai …, priority 2021, published 2024)

Tests used:
[1] = test system: human acute myeloblastic leukemia MOLM-16; experiment: Subcutaneous mouse xenograft tumor of MOLM-16; format: in vivo
Procedure: The experimental animals were NOD-SCID mice (5-6 weeks old, female) purchased from Beijing Huafukang Biotechnology Co., Ltd., with the production license number of SCXK (Jing) 2019-0008 and the animal certification number of 110322211100910838. The housing environment was in a SPF grade. Human acute myelocytic leukemia MOLM-16 cells were purchased from DSMZ. MOLM-16 cells were cultured in an incubator at 37° C. with 5% CO2 in air. Subculturing was performed twice a week, and when the cells were in a logarithmic growth phase, the cells were collected, counted, and inoculated. 1×10^7 MOLM-16 cells were inoculated to each mouse subcutaneously, and when tumors reached the volume of 100-150 mm^3, the mice were divided into groups and injected with drugs intravenously (IV) at the administration volume of 0.1 mL/10 g of body weight.
(§1) The experimental index was to investigate the effects of the drugs on the tumor growth, and the specific index was T/C % or the tumor growth inhibition rate (TGI %, tumor growth inhibition).
(§2) Tumor diameters were measured twice a week with a vernier caliper and tumor volume (V) was calculated according to the following formula: […]
(§3) where a and b represent length and width, respectively.
(§4) T/C (%)=(T−T0)/(C−C0)×100,
(§5) where T and C are the tumor volumes of animals at the end of the experiment in the test group and the negative control group, respectively; T0 and C0 are the tumor volumes of animals at the beginning of the experiment in the test group and the negative control group, respectively.
(§6) If the volume of tumor shrinks compared with its initial volume, i.e., T<T0 […], it is defined as partial regression (PR) of tumor; if the tumor completely disappears, it is defined as complete regression (CR) of tumor.
At the end of the experiment, the animals were sacrificed by CO2 anesthesia and dissected to give the tumors. The tumors were photographed.

[2] = test system: HL60 cells; experiment: Promotion of macrophage phagocytosis of tumor cells (flow cytometry); format: cell-based; conditions: CFSE-labeled HL60 cells, human macrophages
Procedure: The ability of the anti-CD47 antibodies to promote the phagocytosis of tumor cells by macrophages having SIRPα on the cell surface was determined based on flow cytometry.
Monocytes were isolated from human peripheral blood mononuclear cells (PBMC, Sailybio, Cat. No. 190056) using a monocyte isolation kit ([…], Cat. No. 19058), plated into a 24-well plate (Greiner bio-one, Cat. No. 662-160) at […] cells per well, and induced under 100 ng/mL stimulating factor M-CSF (R&D Systems, Cat. No. 216-MC-010) for 7 days to form macrophages. 1×10^6 target cells HL60 (Shanghai Institute of Biochemistry and Cell Biology, Chinese Academy of Sciences, Cat. No. TCHu23) were suspended in […] CFSE (BD Biosciences, Cat. No. 565082) fluorescent dye (diluted with a PBS buffer to the desired concentration), incubated in a water bath at 37° C. in the dark for 15 min, and washed with a PBS buffer to prepare CFSE-labeled HL60 cells, which were then incubated with each of 10 μg/mL and 1 μg/mL anti-CD47 antibodies (see Table 3 for chimenic antibodies, and see Table 4 for humanized antibodies) in an incubator at 37° C. with 5% CO2 for 1-2 h. The HL60 cells after the incubation were washed three times with a PBS buffer and added to the macrophages. […] The rate of phagocytosis (%) by the macrophages was determined using a flow cytometer (BD Biosciences, model: C6).

[3] = test system: Raji cells; experiment: Hematologic tumor mouse model of lymphoma Raji cells, survival; format: in vivo, NOD/SCID mice; conditions: 10 mg/kg intraperitoneal, 21 consecutive days
Procedure: A hematologic tumor mouse model was established using hematologic tumor Raji cells. The anti-CD47 antibodies were applied to the model for the evaluation of the pharmacodynamic activity.
A suspension of Raji cells in a PBS buffer was prepared at a concentration of 5×10^6 cells/mL, and was injected into female NOD/SCID mice via the tail vein at 0.1 mL/mouse. […] The administration was performed by intraperitoneal injection in doses of 10 mg/kg for 21 consecutive days. The survival time of the animals was observed.

[4] = test system: human B-cell lymphoma Daudi; experiment: Subcutaneous mouse xenograft tumor of Daudi; format: in vivo, NOD-SCID mice; conditions: IV D0, 3, hz14A9-2.3 1.5 mg/kg, Rituximab 3 mg/kg
Procedure: The experimental animals were NOD-SCID mice (5-6 weeks old, male) purchased from Shanghai Lingchang Biotechnology Co., Ltd., with the production license number of SCXK (Hu) 2018-0003 and the animal certification number of 20180003014870. The housing environment was in a SPF grade. Human B-cell lymphoma Daudi cells were purchased from Cell Bank of the Chinese Academy of Sciences. Daudi cells were cultured in an incubator at 37° C. with 5% CO2 in air. Subculturing was performed twice a week, and when the cells were in a logarithmic growth phase, the cells were collected, counted, and inoculated. 1×10^7 Daudi cells were inoculated to each mouse subcutaneously, and when tumors reached the volume of about 100 mm^3, the mice were divided into groups and injected with drugs intravenously (IV) once every 3 days (Q3D) for a total of 2 times at the injection volume of 0.1 mL/10 g of body weight.
as §1, §2, §3, §4, §5, §6
At the end of the experiment (D24), the animals were sacrificed by CO2 anesthesia and dissected to give the tumors. The tumors were photographed.

[5] = Azacitadine 2.5 mg/kg IV QD × 5

Compound: Nc1ncn([C@@H]2O[C@H](CO)[C@@H](O)[C@H]2O)c(=O)n1 [Azacitadine, 4-amino-1-β-D-ribofuranosyl-1,3,5-triazin-2(1H)-one]
- T/C(%) D12 ([1]; Azacitadine 1 mg/kg IV QD × 5): 50%
- Tumor growth inhibition (%) D12 ([1]; Azacitadine 1 mg/kg IV QD × 5): 50%
- T/C(%) D12 [1, 5]: 18%
- Tumor growth inhibition (%) D12 [1, 5]: 82%
- mean tumor volume D17 ([1]; azacitadine 1 mg/kg IV QD×5 monotherapy): 3729.5 ± 436.4 mm^3
- mean tumor volume D17 ([1]; azacitadine 2.5 mg/kg IV QD×5 monotherapy): 1920.7 ± 375.6 mm^3

Compound: Hu5F9: the positive antibody Hu5F9, comparison anti-CD47 antibody [reference compound]
- rate of phagocytosis ([2]; 1 μg/mL antibody): 67.5%
- rate of phagocytosis ([2]; 10 μg/mL antibody): 72.35%
- day on which all the animals in the group died [3]: 30 days
- median survival time [3]: 18.5 days

Compound: Rituximab: anti-CD20 monoclonal antibody [reference compound]
- T/C(%) D24 [4]: 64%
- Tumor growth inhibition (%) D24 [4]: 36%
- Partial regression (number of tumors) ([4]; hIgG4 4.5 mg/kg, 6 mice per group (hIgG4 10)): 0
